Experimental data reported in patent US20070184098A1, “Esters of flavonoids with w-substituted c6-c22 fatty acids” (priority 2003, published 2007).
Where “and” joins values, the source holds several entries; their conditions need not be identical. Equal entries are not always repeated. Where two headings read alike, the source gives them in different places.

Key:
Human fibroblasts = assay: UVA cytophotoprotection, anti-oxidative effect (MDA released, cell proteins, GSH) on UVA-irradiated human fibroblasts; format: cell-based; settings: UVA 20 J/cm2; for Cell GSH/protein ratio: irradiated control = 78, not irradiated = 100; for MDA released: irradiated control = 100, not irradiated = 0; for Cell proteins: irradiated control = 107, not irradiated = 100
Procedure: The cytoprotection against UVA irradiation has been evaluated by a test on human fibroblasts because UVA radiation penetrates through the epidermis until the dermis where it induces oxidative stress, mainly by activation of photosensitising biological components, which catalyse the formation of ROS like anion superoxide, hydrogen peroxide and singlet oxygen, and lipoperoxydation of the cell membrane. These oxidative stress effects are evaluated in vitro due to measuring of the level of released MDA (malondialdehyde) and of intracellular GSH (reduced glutathion) (Morliere P., Moisan A., Santus R., Huppe G., Mazière J. C., Dubertret L.: UV-A induced lipid peroxydation in cultured human fibroblasts Biochim. Biophys. Acta (1991) 1084, 3:261-269).
The lipoperoxides formed after UVA irradiation undergo a decay into malondialdehyde which can form cross-links between many biological molecules like proteins with inhibition of enzymes and nucleic bases with risk of mutagenesis. Glutathione (GSH) is a peptide produced by the cells to protect them from oxidative stress or certain pollutants like mercury or lead. An increase in the GSH level enhances the activity of glutathion-S-transferase, a detoxification enzyme. GSH is evaluated according to the method of Hissin (Hissin P. J., Hilf R. A fluorometric method for determination of oxydised and reduced Glutathione in tissues. Analytical Biochemistry (1977) vol 74, pp 214-226).
Human fibroblasts were inoculated with growth medium (DMEM+FCS) and incubated 3 days at 37° C., with 5% CO2. The growth medium was then exchanged with medium containing an ingredient to be tested and incubated 2 days at 37° C. with CO2=5%. After an exchange of medium with balanced salt solution, the cell culture was irradiated by UVA 20 J/cm^2. Cell proteins and GSH were measured, and MDA released in the supernatant was determined spectrophotometrically.

Human keratinocytes = assay: UVB cytophotoprotection and anti-inflammatory effect (DNA, LDH and PGE2 released) on UVB-irradiated human keratinocytes; format: cell-based; settings: UVB 50 mJ/cm2; for Keratinocytes DNA: irradiated control = 23, not irradiated = 100; for LDH released / PGE2 released: irradiated control = 100, not irradiated = 0
Excerpt: The arachidonic cascade is an important mechanism of cutaneous inflammation. This cascade may be induced by several factors, particularly by UVB irradiation. UVB induces the inflammatory response by activation of phospholipase A2 (PLA2), which results in a release of arachidonic acid from cell membranes. Then other specific enzymes (so called cyclo-oxygenases) transform arachidonic acid in active components called prostaglandin (PG) which are secreted from the cells. The fixation of certain prostaglandins (PGE2) on specific skin receptors is followed by redness and swelling on human skin. On cultured human cells, these UVB effects on cell's membrane are associated with a release of a cytoplasmic enzyme into the supernatant medium: Lactate Dehydrogenase or LDH.
Human keratinocytes were inoculated with growth medium (DMEM+FCS) and incubated 3 days at 37° C. and 5% CO2. The growth medium was then exchanged with balanced salt solution containing the ingredient to be tested, the cell culture was irradiated by UVB 50 mJ/cm^2 (DUKE GL40E lamp). After 1 day of incubation at 37° C. with 5% CO2, LDH and PGE2 released in the medium were determined, and cellular DNA was measured using a fluorescent probe to determine the cell viability.

Lipoxygenase = assay: Anti-free radical activity: superoxide anions released by lipoxygenase, Luminol probe; format: biochemical; settings: mean of 2 assays; lipoxygenase with unsaturated fatty acid substrate
Procedure: The anti-free radical (anti-FR) activity has been evaluated by biochemical tests to address the potential for scavenging superoxide anion (O2°).
Lipoxygenase was incubated with a specific substrate (unsaturated fatty acid) and the flavonoid esters. Then the rate of released superoxide anions was determined using Luminol luminescent probe to calculate the IC50 (mean of 2 assays).

[1] = Solubility in hydrophilic and lipophilic solvent by HPLC; format: physicochemical; settings: stirring 1 hour at room temperature; for solubility at 1 h: thermodynamic from solid
Procedure: The solubility was determined by HPLC measurement after stirring during 1 hour at room temperature.

| Compound | Cell GSH/protein ratio (Human fibroblasts; dose 0.001 % w/v) [% against control] | MDA released (Human fibroblasts; dose 0.001 % w/v) [% against control] | Cell proteins (Human fibroblasts; dose 0.001 % w/v) [% against control] | Cell GSH/protein ratio (Human fibroblasts; dose 0.003 % w/v) [% against control] | MDA released (Human fibroblasts; dose 0.003 % w/v) [% against control] | Cell proteins (Human fibroblasts; dose 0.003 % w/v) [% against control] | Keratinocytes DNA (Human keratinocytes; dose 0.001 % w/v) [% against control] | LDH released (Human keratinocytes; dose 0.001 % w/v) [% against control] | PGE2 released (Human keratinocytes; dose 0.001 % w/v) [% against control] | Keratinocytes DNA (Human keratinocytes; dose 0.003 % w/v) [% against control] | LDH released (Human keratinocytes; dose 0.003 % w/v) [% against control] | PGE2 released (Human keratinocytes; dose 0.003 % w/v) [% against control] | IC50 (w/v), released superoxide anions (Lipoxygenase) [w/v] | Cell GSH/protein ratio (Human fibroblasts; dose 0.01 % w/v) [% against control] | MDA released (Human fibroblasts; dose 0.01 % w/v) [% against control] | Cell proteins (Human fibroblasts; dose 0.01 % w/v) [% against control] | Keratinocytes DNA (Human keratinocytes; dose 0.01 % w/v) [% against control] | LDH released (Human keratinocytes; dose 0.01 % w/v) [% against control] | PGE2 released (Human keratinocytes; dose 0.01 % w/v) [% against control] | Solubility in butylene glycol [1] | also measured |
| --- | --- | --- | --- | --- | --- | --- | --- | --- | --- | --- | --- | --- | --- | --- | --- | --- | --- | --- | --- | --- | --- |
| CC1OC(OCC2OC(Oc3c(-c4ccc(O)c(O)c4)oc4cc(O)cc(O)c4c3=O)C(O)C(O)C2O)C(O)C(O)C1OC(=O)CCCCCCCCCCCCCCC(=O)OC1C(C)OC(OCC2OC(Oc3c(-c4ccc(O)c(O)c4)oc4cc(O)cc(O)c4c3=O)C(O)C(O)C2O)C(O)C1O (stereo not drawn) [Dirutin hexadecandioate, dirutin hexadecandioate] | 98 | 39 | 138 | 154 | 9 | 149 | 38 | 44 | 3 | 35 | 33 | 1 | 0.0028 |  |  |  |  |  |  |  |  |
| C[C@@H]1O[C@@H](OC[C@H]2O[C@@H](Oc3c(-c4ccc(O)c(O)c4)oc4cc(O)cc(O)c4c3=O)[C@H](O)[C@@H](O)[C@@H]2O)[C@H](O)[C@H](O)[C@H]1O [Rutin, reference compound] |  |  |  | 72 | 79 | 126 |  |  |  |  |  |  |  | 71 | 72 | 128 |  |  |  |  | Keratinocytes DNA (Human keratinocytes; dose 0.03 % w/v): 69 % against control; LDH released (Human keratinocytes; dose 0.03 % w/v): 17 % against control; PGE2 released (Human keratinocytes; dose 0.03 % w/v): 0 % against control; Keratinocytes DNA (Human keratinocytes; dose 0.1 % w/v): 73 % against control; LDH released (Human keratinocytes; dose 0.1 % w/v): 18 % against control; PGE2 released (Human keratinocytes; dose 0.1 % w/v): 10 % against control; solubility at 1 h ([1]; butylene glycol, organic solvent or mixture, read-out: Solubility in butylene glycol): 22600 µg/mL and 37100 µM; solubility at 1 h ([1]; octyl-dodecanol, oil or lipid, read-out: Solubility in octyl-dodecanol): 30 µg/mL and 50 µM; solubility at 1 h ([1]; water, read-out: Solubility in water): 160 µg/mL and 270 µM |
| Rutin octadecandioate | 73 | 46 | 139 | 122 | 15 | 133 | 23 | 73 | 28 | 49 | 31 | 3 | 0.0034 |  |  |  |  |  |  |  |  |
| CC1OC(OCC2OC(Oc3c(-c4ccc(O)c(O)c4)oc4cc(O)cc(O)c4c3=O)C(O)C(O)C2O)C(O)C(O)C1OC(=O)CCCCCCCC(=O)O (stereo not drawn) [Rutin azelaiate] | 67 | 78 | 144 | 64 | 64 | 165 |  |  |  | 51 | 45 | 28 | 0.0025 |  |  |  | 53 | 27 | 19 |  |  |
| CC1OC(OCC2OC(Oc3c(-c4ccc(O)c(O)c4)oc4cc(O)cc(O)c4c3=O)C(O)C(O)C2O)C(O)C(O)C1OC(=O)CCCCCCCCCCCCCCC(=O)O (stereo not drawn) [Rutin hexadecandioate, rutin hexadecandioate] |  |  |  | 101 | 46 | 129 |  |  |  | 24 | 53 | 2 | 0.0036 | 75 | 21 | 178 | 39 | 19 | 0 | 39.4 g/L and 44.7 mM | Solubility in octyl-dodecanol [1]: 0.13 g/L and 0.15 mM; Solubility in water [1]: 0.38 g/L and 0.43 mM |
| CC1OC(OCC2OC(Oc3c(-c4ccc(O)c(O)c4)oc4cc(O)cc(O)c4c3=O)C(O)C(O)C2O)C(O)C(O)C1OC(=O)CCCCCCCCCCS (stereo not drawn) [Rutin 11-mercaptoundecanoate] | 131 | 34 | 94 | 283 | 0 | 89 |  |  |  |  |  |  |  |  |  |  |  |  |  | 54.5 g/L and 67.2 mM | Keratinocytes DNA (Human keratinocytes; dose 0.0001 % w/v): 44 % against control; LDH released (Human keratinocytes; dose 0.0001 % w/v): 75 % against control; PGE2 released (Human keratinocytes; dose 0.0001 % w/v): 26 % against control; Keratinocytes DNA (Human keratinocytes; dose 0.0003 % w/v): 41 % against control; LDH released (Human keratinocytes; dose 0.0003 % w/v): 92 % against control; PGE2 released (Human keratinocytes; dose 0.0003 % w/v): 12 % against control; Solubility in octyl-dodecanol [1]: 0.15 g/L and 0.19 mM |
